Experiments:
[1] = test system: HT1080 cells; experiment: Cancer cell proliferation, U3 and U5 oligonucleotides, 72 hours; format: cell-based, human; settings: 20 μg/ml
Description: FIG. 16 is a graph showing the effect of sense and antisense ERV-9 U3 (SEQ ID NOs: 1, 2, 7, 8, 9, and 10) and U5 (SEQ ID NOs: 11 and 12) oligonucleotides on proliferation of HT1080 cells. Cells (4×10^4) were treated with oligonucleotide formulated in LIPOFECTAMINE™ at a concentration of 20 μg/ml for 72 hours. GFP sense oligonucleotide was used as a control to measure the non-specific cytotoxicity of phosphorothioate-based oligonucleotides. Antisense oligonucleotides G3139, GRN163, and MDM2 were also evaluated. Cell proliferation levels were expressed relative to cells transfected with GFP oligonucleotide. All U3 and U5 sense and antisense oligonucleotides inhibited cell proliferation to a greater extent that GFP control. In addition, with the exception of the U5 sense oligonucleotide, all U3 and U5 oligonucleotides inhibited cell proliferation better than the G3139, GRN163 and MDM2 antisense oligonucleotides.
(§1) HT1080 or MDA-231 cells (4×10^4 cells) were treated with ERV-9 LTR (U3 or U5) sense or antisense oligonucleotides formulated in LIPOFECTAMINE™ at a concentration of 20 μg/ml for 72 hours. GFP sense oligonucleotide was used as a control to measure the non-specific cytotoxicity of phosphorothioates-based oligonucleotides. Relative cell proliferation levels were expressed as percentage of GFP oligonucleotide transfected control. The results are shown in FIG. 16 (HT1080 cells) and FIG. 17 (MDA-231 cells).

[2] = test system: MDA-231 cells; experiment: as above; format: cell-based, human; settings: 20 μg/ml
Description: FIG. 17 is a graph showing the effect of sense and antisense ERV-9 U3 and (SEQ ID NOs: 1, 2, 7, 8, 9, and 10) and U5 (SEQ ID NOs: 11 and 12) oligonucleotides on proliferation of MDA-231 cells. Cells (4×10^4) were treated with oligonucleotide formulated in LIPOFECTAMINE™ at a concentration of 20 μg/ml for 72 hours. GFP sense oligonucleotide and G3139, GRN163 and MDM2 antisense oligonucleotides were included as controls. Cell proliferation levels were expressed relative to cells transfected with GFP oligonucleotide. All U3 and U5 sense and antisense oligonucleotides inhibited cell proliferation better than GFP control and the G3139, GRN163 and MDM2 antisense oligonucleotides.
as §1

[3] = test system: LNcaP cells; experiment: Cancer cell proliferation, oligonucleotide in combination with VP16, 48 hours; format: cell-based, human; settings: oligonucleotide 15 μg/ml with VP16 30 ng/ml and 50 ng/ml
Description: FIG. 10 is a graph showing proliferation of LNcaP cells treated with ERV-9 U3 sense or antisense oligonucleotide (SEQ ID NOs: 1 and 2, respectively), in combination with VP16. Cells (4×10^4) were treated with oligonucleotide (15 μg/ml) alone or in combination with the concentrations of VP16 shown for 48 hours.
To test the effect of treating cancer cells with the combination of ERV-9 U3 oligonucleotide and VP16, six different cancer cell lines were analyzed: HT1080, (FIG. 7); MDA-231 (FIG. 8); K562 (FIG. 9); LNcaP (FIG. 10); HepG2 (FIG. 11); and MCF-7 (FIG. 12). Cells (4×10^4) were treated with 15 μg/ml ERV-9 U3 sense (SEQ ID NO: 1) or antisense (SEQ ID NO: 2) oligonucleotide alone or in combination with VP16 at a concentration of 30 ng/ml or 50 ng/ml. After 48 hours, cell proliferation was assessed by direct cell counting. Cell proliferation levels were expressed relative to GFP oligonucleotide control in the absence of VP16.

[4] = test system: tumor; settings: U.S. Pat. Nos. 7,256,284 and 6,946,447; Ozawa et al. 2004; cited from earlier work
[5] = test system: MDA-231 cells (a breast cancer cell line); experiment: Cancer cell proliferation, oligonucleotide in LIPOFECTAMINE, 48 hours, direct cell counting; format: cell-based, human; settings: oligonucleotide 10, 20 or 30 μg/ml, P<0.05
[6] = test system: MDA-231 cells; experiment: Cancer cell proliferation, oligonucleotide in combination with VP16, 48 hours; format: cell-based, human; settings: oligonucleotide 15 μg/ml with VP16 30 ng/ml and 50 ng/ml, P<0.05
[7] = test system: LNcaP cells (a prostate cancer cell line); experiment: Cancer cell proliferation, oligonucleotide in LIPOFECTAMINE, 48 hours, direct cell counting; format: cell-based, human; settings: oligonucleotide 10, 20 or 30 μg/ml
[8] = test system: MDA-231 cells; experiment: Tumor cell proliferation, siRNA in LIPOFECTAMINE, 72 hours; format: cell-based, human; settings: siRNA 100 nM
Description: (§2) FIG. 20 is a pair of graphs showing the effect of ERV-9 LTR U3 region siRNA (SEQ ID NOs: 13 and 14), alone or in combination with VP16, on proliferation of MDA-231 (top) and MCF-7 (bottom) cells. 4×10^4 cells were treated with siRNAs formulated in LIPOFECTAMINE™ at 100 nM for 72 hours. RRM2 is a combination of three siRNAs (SEQ ID NOs: 15, 16, and 17) against ribonucleotide reductase subunit M2. Relative cell proliferation levels were expressed as percentage of non-treated control.
(§3) 4×10^4 cells were treated with siRNAs formulated in LIPOFECTAMINE™ at 100 nM for 72 hours. […] For RRM2, a combination of the 3 siRNAs was used at final concentration of 100 nM. Relative cell proliferation levels were expressed as percentage of non-treated control. Student's t-test was used for statistics.

[9] = test system: MCF-7 cells; experiment: as above; format: cell-based, human; settings: siRNA 100 nM
Description: as §2, §3

Substance	cell proliferation relative to GFP oligonucleotide transfected control [1]	cell proliferation relative to GFP oligonucleotide transfected control [2]	cell proliferation relative to GFP oligonucleotide control [3]	tumor growth in animal models [4]	cell proliferation relative to GFP oligonucleotide [5]	cell proliferation relative to GFP oligonucleotide control [6]	cell proliferation relative to GFP oligonucleotide [7]	other results
U3S5: ERV-9 U3 sense oligonucleotide GGCTGGCCAAGGCCAGAGCCGGCTCC, target nt 2792-2817 (AF064190) (listed as DNA, chemistry not given here) [Oligo U3S5]	inhibited cell proliferation better than G3139, GRN163 and MDM2 oligonucleotides	–	–	–	–	–	–	–
U3AS5: ERV-9 U3 antisense oligonucleotide CCGACCGGTTCCGGTCTCGGCCGAGG, target nt 2792-2817 (AF064190) (listed as DNA, chemistry not given here) [Oligo U3AS5]	inhibited cell proliferation better than G3139, GRN163 and MDM2 oligonucleotides	–	–	–	–	–	–	–
U3S4: ERV-9 U3 sense oligonucleotide CCGAGCCTCGCCGACGAGCGCCGC, target nt 3096-3119 (AF064190) (listed as DNA, chemistry not given here) [Oligo U3S4]	inhibited cell proliferation better than G3139, GRN163 and MDM2 oligonucleotides	–	–	–	–	–	–	–
U5S: ERV-9 U5 sense oligonucleotide GAACACATCCAAACATCAGAAC, target nt 819-840 (AF064191) (listed as DNA, chemistry not given here) [Oligo U5S]	inhibited cell proliferation better than the GFP oligonucleotide control	–	–	–	–	–	–	–
GRN163: antisense oligonucleotide specific for telomerase, TAGGGTTAGACAA (listed as DNA, further chemistry not given here)	–	inhibited cell proliferation better than the GFP control oligonucleotide	did not inhibit cell proliferation at any VP16 concentration tested	has been previously shown to inhibit tumor growth in animal models	inhibited cell proliferation only at concentrations of 10 μg/ml and 20 μg/ml	inhibited cell proliferation only at a VP16 concentration of 50 ng/ml	did not significantly inhibit cell proliferation at any of the three concentration levels	–
MDM2 antisense oligonucleotide: antisense oligonucleotide specific for MDM2, TGACACCTGTTCTCACTCAC (listed as DNA, chemistry not given here)	inhibited cell proliferation better than the GFP oligonucleotide control	inhibited cell proliferation better than the GFP control oligonucleotide	inhibited cell proliferation better than GFP control only at a VP16 concentration of 30 ng/ml	has been previously shown to inhibit tumor growth in animal models	inhibited cell proliferation only at concentrations of 10 μg/ml and 20 μg/ml	inhibited cell proliferation only at a VP16 concentration of 50 ng/ml	inhibited cell proliferation only at a concentration of 10 μg/ml	–
U3AS4: ERV-9 U3 antisense oligonucleotide GCGGCGCTCGTCGGCGAGGCACGG, target nt 3096-3119 (AF064190) (listed as DNA, chemistry not given here) [Oligo U3AS4]	inhibited cell proliferation better than G3139, GRN163 and MDM2 oligonucleotides	–	–	–	–	–	–	–
ERV-9 LTR U3 siRNA: siRNA duplex of the ERV9 LTR U3 region: CUCAAGGUUUGUAAACACACCAAUCAG and CUGAUUGGUGUGUUUACAAACCUUGAG (listed as RNA, chemistry not given here)	–	–	–	–	–	–	–	cell proliferation as percentage of non-treated control [8]: inhibited cell proliferation better than RRM2 siRNAs; cell proliferation as percentage of non-treated control [9]: inhibited cell proliferation better than RRM2 siRNAs
G3139: antisense oligonucleotide specific for Bcl-2, TCTCCCAGCGTGCGCCAT (listed as DNA, chemistry not given here) [Oligo G3139]	inhibited cell proliferation better than the GFP oligonucleotide control	inhibited cell proliferation better than the GFP control oligonucleotide	did not inhibit cell proliferation at any VP16 concentration tested	has been previously shown to inhibit tumor growth in animal models	inhibited cell proliferation only at oligonucleotide concentrations of 20 μg/ml and 30 μg/ml	inhibited cell proliferation only at a VP16 concentration of 50 ng/ml	did not significantly inhibit cell proliferation at any of the three concentration levels	–
U5AS: ERV-9 U5 antisense oligonucleotide GTTCTGATGTTTGGATGTGTTC, target nt 819-840 (AF064191) (listed as DNA, chemistry not given here) [Oligo U5AS]	inhibited cell proliferation better than G3139, GRN163 and MDM2 oligonucleotides	–	–	–	–	–	–	–
